Laboratory results: patent US9174983B2, “Pyrroloquinoline quinone disodium salt crystal and method for producing the same” (MITSUBISHI GAS CHEMICAL COMPANY, INC., priority 2011, dated 2015)
Each block holds one molecule with its values, some of them ahead of it.

What was measured:
Assay type in all cases: physicochemical
[1] = Water content by the Karl Fischer method
Method: The water content (% by weight) of each crystal was determined by the Karl Fischer method.

[2] = Dispersibility test of PQQ disodium crystals in soybean oil (precipitation time); settings: 5 mg crystal in 200 μL soybean oil, room temperature, time until all floating crystals precipitated to the bottom, index of dispersibility
Description: In this example, the PQQ disodium crystal in Crystalline Form 1 and Crystalline Form 2 was compared in dispersibility in edible oils with the conventional crystals.
After drying, the pressure in the vessel was returned to atmospheric pressure, and immediately the glass vessel was closed with a lid. […] After drying, the temperature within the flask was reduced to room temperature with nitrogen gas refluxed.
Then, they were allowed to stand still at room temperature, and the time period until all of the crystals floating on the soybean oil were precipitated to the bottom of the vessel was measured, which was used as an index of dispersibility for each crystal.

[3] = Heat stability on heating in edible oil (high performance liquid chromatography); settings: after heating in edible oil ODO at 150° C. for 30 minutes
[4] = Thermogravimetric analysis of water content; settings: crystal formed at 180° C.
Description: However, this crystal was unstable.

[5] = resulting crystal after the drying step, % by weight

water content ([1]; crystal as precipitated with ethanol, before drying): 14.5%
water content [1, 5]: 9.6%
Molecule: O=C([O-])c1cc(C(=O)[O-])c2c(n1)C(=O)C(=O)c1cc(C(=O)O)[nH]c1-2.[Na+].[Na+] [Comparative Example 1, reference compound]

Precipitation time [2]: 30 min
water content [1, 5]: 0.7%
water content ([1]; resulting crystal after the drying step, % by weight, listed as Example 2): 2.2%
water content ([1]; resulting crystal after the drying step, % by weight, listed as Example 3): 1.9%
amount of impurities contained in the crystal [3]: did not increase
Molecule: pyrroloquinoline quinone disodium crystal [Crystalline Form 1]

Precipitation time [2]: 45 min
water content [4]: ~0%
Molecule: pyrroloquinoline quinone disodium crystal [Crystalline Form 2]

Precipitation time [2]: 0.5 min
Precipitation time ([2]; listed as precursor crystal): 0.5 min
water content ([1]; after disposal at 40° C. and relative humidity 75%): 12.7%
Molecule: pyrroloquinoline quinone disodium crystal [Precursor crystal, reference compound]
